Data published in PMC10287695, “Non-covalent inhibitors of thioredoxin glutathione reductase with schistosomicidal activity in vivo” (Nature Communications, 2023).
Several values for one entry are separate records, joined by “and”; a condition that tells them apart may be missing. Equal values may be shown once. Marks after values point to notes of the source that are not given here.

What was measured:
[1] = tested on: TGR in newly transformed schistosomula (NTS); assay: TGR inhibition in NTS with TRFS-Green fluorescent probe; format: cell-based, S. mansoni; conditions: for TRFS-Green fluorescence in NTS: 2 h with inhibitor (30 µM; AF 3 µM) then TRFS-Green 10 µM
How it was run: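 Newly transformed schistosomula were cultured overnight at 37 °C with 5% CO2 in M199 containing 5.5 mM D-glucose, penicillin-streptomycin and 5% heat inactivated fetal bovine serum. After treatment they received TRFS-Green (10 µM) for 4 h and were rinsed. Fluorescence was imaged (Keyence BZ-X800) and quantified on a Cytation3 at excitation 438 nm, emission 538 nm.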

[2] = target: T1, TGR (Schistosoma mansoni, UniProt Q962Y6); assay: Reversibility by jump dilution; format: biochemical; conditions: for Inhibitor (rate), 0 min / % Activity, 0 min: [0, D0]: 15 min preincubation inhibitor + TGR + NADPH, diluted 1:100, then activity determined immediately; for Inhibitor (rate), 0 min / Inhibitor (rate), 60 min / Inhibitor (rate), -15: raw rate; for % Activity, 0 min / % Activity, 60 min / % Activity, -15: relative to DMSO; for Inhibitor (rate), 60 min / % Activity, 60 min: [60, D60]: 15 min preincubation inhibitor + TGR + NADPH, diluted 1:100, then activity determined after 60 min; for Inhibitor (rate), -15 / % Activity, -15: [-15]: 15 min preincubation inhibitor + TGR + NADPH, then activity determined, replicates; for % Activity (ID list) / % Inhibition (ID list): before dilution (-15)
T1 construct: made in house
T1 sequence (Q962Y6 1-598): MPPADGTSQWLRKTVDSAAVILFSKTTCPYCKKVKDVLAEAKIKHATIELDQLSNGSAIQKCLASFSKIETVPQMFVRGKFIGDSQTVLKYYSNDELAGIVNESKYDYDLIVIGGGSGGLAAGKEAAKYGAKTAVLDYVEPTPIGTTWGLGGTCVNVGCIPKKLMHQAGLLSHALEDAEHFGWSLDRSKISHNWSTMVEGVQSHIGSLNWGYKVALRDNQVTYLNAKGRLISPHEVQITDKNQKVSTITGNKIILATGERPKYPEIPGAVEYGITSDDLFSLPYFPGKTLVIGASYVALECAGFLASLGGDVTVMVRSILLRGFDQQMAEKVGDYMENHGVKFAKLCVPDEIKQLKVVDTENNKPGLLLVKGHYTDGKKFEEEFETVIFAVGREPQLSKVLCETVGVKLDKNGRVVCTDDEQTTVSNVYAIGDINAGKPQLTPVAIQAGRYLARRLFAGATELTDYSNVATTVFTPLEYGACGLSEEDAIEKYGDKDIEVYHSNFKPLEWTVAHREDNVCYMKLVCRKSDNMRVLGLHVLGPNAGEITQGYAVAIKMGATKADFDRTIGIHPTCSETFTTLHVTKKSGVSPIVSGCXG
Method: A reaction of 370 nM TGR, 100 µM NADPH, and 250 µM inhibitor was incubated for 15 min at room temperature. A 100x dilution of the reaction was made and the activity was determined immediately and after 60 min.

[3] = target: T1, TGR; assay: Time dependence of inhibition; format: biochemical; set-up: avg % inhib, 0.5 hr / avg % inhib, 1 hr / avg % inhib, 2 hr / avg % inhib, 3 hr / avg % inhib, 6 hr / avg % inhib, 24 hr: tested at 50 µM
Method: TGR was incubated at room temperature (up to 6 h) and at 4 °C for 6 to 24 h with 50 µM inhibitor and 100 µM NADPH for the indicated times. Then DTNB (3 mM) and NADPH (100 µM) were added, and the reaction was monitored at A412 for 5 min. The assay was done in triplicate.

[4] = target: T1, TGR; assay: Thermal shift assay (TSA); format: binding; set-up: key to Avg. Tm / Tm, replicate 1-3: Tm in °C, from a 25–95 °C melt curve; conditions: for Avg. Tm / Tm, replicate 1-3: TGR + 100 µM compound; for Avg. Tm, + 500 µM NADPH / Tm, replicate 1-3, + 500 µM NADPH: TGR + 100 µM compound + 500 µM NADPH; for Tm, replicate 1-3, + 500 µM NADPH / Tm, replicate 1-3: single replicates; for Tm, replicate 1-3, + 500 µM NADPH: in °C (unit assumed)
Method: Samples were prepared by using a final concentration of 0.25 mg/ml TGR diluted in TGR reaction buffer to the desired volume. To evaluate reduced TGR, 500 µM NADPH was added. […] After the preincubation period, 20 µL samples were pipetted into a BioRad un-skirted PCR 96 well plate and sealed with MicroAmp^TM Optical Adhesive film. The plate was then centrifuged for 5 min at 1000 × g. TSA was carried out using a BioRad CFX Connect qPCR instrument with a melt curve setting of 25 − 95 °C, in increments of 0.5 °C/10 seconds. The SYBR green channel was used to detect fluorescence as the wavelength of flavin fluorescence overlaps with that of SYBR green. BioRad CFX Maestro 5.2 was used to analyze TSA data.

[5] = tested on: S. mansoni juvenile worms (21 days); assay: Schistosomicidal activity ex vivo, juvenile worms (21 days); format: cell-based; conditions: for viability at 5 µM / viability at 15 µM / viability at 30 µM: Schistosoma mansoni, 23 day S. mansoni worms, 48 HR; for viability at 5 µM: Conc. 5 µM; for viability at 15 µM: Conc. 15 µM; for viability at 30 µM: Conc. 30 µM; for LD50 ex vivo S. mansoni 21 days: juvenile worms, 48 h exposure
How it was run: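 Worms recovered from infected Swiss-Webster mice and cultured overnight, then exposed in triplicate to compounds in RPMI (juvenile, adult) at <1% DMSO; 5 µM AF as positive control. Viability calculated as test mean over DMSO-control mean ×100; adult worms read by CellTiter-Glo, alone or with channel blockers.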

[6] = tested on: S. japonicum adult worms; assay: Schistosomicidal activity ex vivo, S. japonicum adult worms; format: cell-based; conditions: for LD50 ex vivo S. japonicum adult: 48 h exposure; for viability at 5 µM / viability at 15 µM / viability at 30 µM: Schistosoma japonicum, S. japonicum adult worms, 48 hr; for viability at 5 µM: Conc. 5 µM; for viability at 15 µM: Conc. 15 µM; for viability at 30 µM: Conc. 30 µM
Method: Three-week old, female Swiss-Webster mice obtained from the Charles River were housed in the Comparative Research Center of Rush University Medical Center. Mice were infected by percutaneous tail exposure to about 200 S. mansoni or 50 S. japonicum cercaria for adult worms and about 1000 cercaria for juvenile S. mansoni worms through natural transdermal penetration of the cercariae for 1 h[81].
DMSO formulated compounds were diluted with phenol red free M199 medium or RPMI medium for NTS or juvenile and adult worms, respectively, at <1% DMSO final concentrations. NTS, juvenile and adult worms from overnight cultures were tested against compounds in triplicate. Controls were treated with DMSO alone or 5 µM AF as a positive control in appropriate medium. […] Schistosome viabilities in the presence of the compounds were assessed using this formula: % Viability = Averages of Test / Averages of DMSO Control x 100.

[7] = Cytotoxicity in mammalian cells (Cell Titer Glo); format: cell-based; conditions: African green monkey, Vero cells; for viability at 24 h, 5 µM: Conc. 5 µM; for viability at 24 h, 10 µM: Conc. 10 µM; for viability at 24 h, 25 µM: Conc. 25 µM; for viability at 24 h, 35 µM: Conc. 35 µM; for viability at 24 h, 50 µM: Conc. 50 µM
Method: Following overnight incubation, formulated DMSO-compound stock solutions were diluted with DMEM at <1% DMSO final concentrations. […] Vero cells treated similarly with different concentrations of PZQ, MZM and AF (Cayman Chemicals) were used as positive controls.

[8] = D0: diluted 1:100, activity determined immediately, list for plotting
[9] = D60: diluted 1:100, activity determined after 60 min, list for plotting

## Cc1oc(-c2ccc3c(c2)OCO3)nc1CN[C@@H]1C[C@@H]2C[C@H]([C@H]1C)C2(C)C [Compound 1]
[1]
  TRFS-Green fluorescence in NTS: significant decreases in fluorescence
[1]; compound at 5 µM
  production of green fluorescent dye in TRFS-green assay: abolished
[2]; [8]
  % Inhibition (ID list), D0: -3.0% and -6.3% and -11.0%
[2]; [9]
  % Inhibition (ID list), D60: -11.2% and -8.3% and -14.2%
[2]
  Inhibitor (rate), 0 min: 0.04476 and 0.04528 and 0.04727
  % Activity, 0 min: 96.9881% and 96.3404% and 109.043%
  Inhibitor (rate), 60 min: 0.04331 and 0.04649 and 0.04721
  % Activity, 60 min: 100.185% and 104.308% and 101.157%
  Inhibitor (rate), -15: 0.02911 and 0.02756 and 0.02942
  % Activity, -15: 84.4748% and 76.3012% and 82.9433%
[2]; list for plotting
  % Activity (ID list): 84.5% and 76.3% and 82.9%
  % Inhibition (ID list): 15.5% and 23.7% and 17.1%
[3]; panel d Time Dependence, 0.5 hr
  rate, 0.5 hr: 0.0552 and 0.05671 and 0.05782
[3]; panel d Time Dependence, 0.5 hr, average
  avg % inhib, 0.5 hr: -1.077%
[3]; panel d Time Dependence, 0.5 hr, replicates
  % inhib, 0.5 hr: 0.01811% and -0.5318% and -2.718%
[3]; panel d Time Dependence, 1 hr
  rate, 1 hr: 0.04988 and 0.05076 and 0.05122
[3]; panel d Time Dependence, 1 hr, average
  avg % inhib, 1 hr: 1.283%
[3]; panel d Time Dependence, 1 hr, replicates
  % inhib, 1 hr: 2.919% and -0.8544% and 1.783%
[3]; panel d Time Dependence, 2 hr
  rate, 2 hr: 0.046 and 0.04511 and 0.04817
[3]; panel d Time Dependence, 2 hr, average
  avg % inhib, 2 hr: 0.9089%
[3]; panel d Time Dependence, 2 hr, replicates
  % inhib, 2 hr: -0.9879% and 3.652% and 0.06224%
[3]; panel d Time Dependence, 3 hr
  rate, 3 hr: 0.03818 and 0.03843 and 0.03937
[3]; panel d Time Dependence, 3 hr, average
  avg % inhib, 3 hr: 4.332%
[3]; panel d Time Dependence, 3 hr, replicates
  % inhib, 3 hr: 4.359% and 4.498% and 4.139%
[3]; panel d Time Dependence, 6 hr
  rate, 6 hr: 0.02323 and 0.02106 and 0.02443
[3]; panel d Time Dependence, 6 hr, average
  avg % inhib, 6 hr: 12.8202%
[3]; panel d Time Dependence, 6 hr, replicates
  % inhib, 6 hr: 11.8406% and 18.1182% and 8.502%
[3]; panel d Time Dependence, 24 hr
  rate, 24 hr: 0.0142 and 0.01351 and 0.01414
[3]; panel d Time Dependence, 24 hr, average
  avg % inhib, 24 hr: 28.9728%
[3]; panel d Time Dependence, 24 hr, replicates
  % inhib, 24 hr: 24.2263% and 31.8365% and 30.8557%
[4]
  Avg. Tm: 73.67
  Avg. Tm, + 500 µM NADPH: 73.5
  Tm, replicate 1-3, + 500 µM NADPH: 73.5
  Tm, replicate 1-3: 73.5 (2×) and 74
[4]; without NADPH
  effect on Tm of oxidized TGR: Neither fast 6-9 nor slow TGR inhibitors 1, 3, 5 affected the Tm
[5]
  viability at 5 µM: 69%
  viability at 15 µM: 54.9%
  viability at 30 µM: 46.4%
  LD50 ex vivo S. mansoni 21 days: 26.3 ± 0.48 µM
[6]
  LD50 ex vivo S. japonicum adult: 19.6 ± 1.91 µM
  viability at 5 µM: 87.9%
  viability at 15 µM: 56.2%
  viability at 30 µM: 19.2%
[7]
  viability at 24 h, 5 µM: 94.7%
  viability at 24 h, 10 µM: 94.6%
  viability at 24 h, 25 µM: 94.3%
  viability at 24 h, 35 µM: 83.3%
  viability at 24 h, 50 µM: 72.5%

## Cc1oc(C2CCCCC2)nc1C(=O)N[C@@H]1C[C@@H]2C[C@H]([C@H]1C)C2(C)C [Compound 7]
[1]
  TRFS-Green fluorescence in NTS: significant decreases in fluorescence
[2]; [8]
  % Activity (ID list), D0: 98.5% and 102.6% and 100.0%
  % Inhibition (ID list), D0: 1.5% and -2.6%
[2]; [9]
  % Activity (ID list), D60: 100.2% and 98.4% and 96.1%
  % Inhibition (ID list), D60: -0.17% and 1.6% and 3.9%
[2]
  Inhibitor (rate), 0 min: 0.04944 and 0.05279
  % Activity, 0 min: 98.4664% and 102.604%
  Inhibitor (rate), 60 min: 0.04706 and 0.04925 and 0.04684
  % Activity, 60 min: 100.17% and 98.4213% and 96.1018%
  Inhibitor (rate), -15: 0.001091 and 8.088e-5 and -1.437e-5
  % Activity, -15: 2.42% and 0.1757%
[2]; list for plotting
  % Activity (ID list): 2.4% and 0.2% and -0.3%
  % Inhibition (ID list): 97.6% and 99.8% and 100.3%
[3]; panel c, time 0 (time unit not given), replicates
  TGR activity relative to dmso, time 0: 10.9848 and 15.3969 and 9.648
[3]; panel c, time 5 (time unit not given), replicates
  TGR activity relative to dmso, time 5: 3.59 and 2.532 and 3.143
[3]; panel c, time 10 (time unit not given), replicates
  TGR activity relative to dmso, time 10: 6.629 and 6.846 and 6.371
[3]; panel c, time 15 (time unit not given), replicates
  TGR activity relative to dmso, time 15: 7.462 and 7.906 and 7.375
[3]; panel c, time 30 (time unit not given), replicates
  TGR activity relative to dmso, time 30: 9.0362 and 7.137 and 8.678
[4]
  Avg. Tm: 73.6667
  Avg. Tm, + 500 µM NADPH: 73.5
  Tm, replicate 1-3, + 500 µM NADPH: 73.5
  Tm, replicate 1-3: 73.5 (2×) and 74
[5]
  viability at 5 µM: 77.6%
  viability at 15 µM: 63.5%
  viability at 30 µM: 58.7%
  LD50 ex vivo S. mansoni 21 days: >30^a µM
[6]
  LD50 ex vivo S. japonicum adult: 26.8 ± 1.62 µM
  viability at 5 µM: 89%
  viability at 15 µM: 71.1%
  viability at 30 µM: 39.8%
[7]
  viability at 24 h, 5 µM: 92%
  viability at 24 h, 10 µM: 91.8%
  viability at 24 h, 25 µM: 89.5%
  viability at 24 h, 35 µM: 85.8%
  viability at 24 h, 50 µM: 83.6%
